This note sets out measurements from patent publication US8598122B2, “Antagonistic peptides for frizzled-1 and frizzled-2” (Universiteit Maastricht, priority 2009, dated 2013).

Each structure is given as a SMILES string. “Also recorded” adds a separate entry of the source. Where a SMILES comes first, the peptide text is derived from it.

In one data set the target is T1, frizzled-2 (rFzd-2) (Rattus norvegicus, UniProt Q08464).
T1 construct: expressed in transfected cells; host or cells: HEK293 superTOPflash (human embryonic kidney), transient, pcDNA3.1/hygro
The data set can be described thus: Activity assay: Wnt3a-induced luciferase (superTOPflash) in HEK cells transfected with frizzled-2. Format: cell-based. On the procedure:
(§1) Human embryonic kidney (HEK) cells were used for screening. These cells have a luciferase construct stably transfected into the genome (see FIG. 2A), such that when the frizzled receptor is activated and β-catenin is increased, the luciferase is activated by transcription and light can be measured.
The peptides were tested by transfecting the frizzled-1 or the frizzled-2 receptor and addition of UM206(S-S) to the cell culture. For testing antagonistic activity, UM206 was added and the natural ligand Wnt3a was added, which is a natural stimulus for the canonical pathway.
Day 2: Transfection 12-well plates • heat Fugene6 and DNA 15 minutes at RT • 2 ml serum-free medium in tube • add 3μl fugene • add 2 μg DNA • incubate 30 minutes at RT • wash with PBS • add 50 μtransfectiemix • add 1 ml antibiotica-free medium
Day 3: Add conditioned medium or UM206
Day 4: Luciferase activity measurements • remove medium • wash with PBS • add 500 μl ⅕ lysisbuffer • shake for 60 minutes • centrifuge in tube • 20 μl lysaat and 50 μl luciferase in new tube for measurement • vortex • measure
To determine the inhibitory constant of UM206-8, HEK293-superTOPflash cells were transfected with either rFzd-1 or -2 and incubated with Wnt3a (10^−9M) in the presence of increasing concentrations of either of the peptides (FIG. 15). For UM206, a biphasic inhibition curve was observed that was best fitted with a two-binding-state model.
The cell lines were cultured in 75 cm^2 culture flasks (Corning, Schiphol, the Netherlands) in Dulbeco's modified essential medium with L-glutamine (2 mM), 10% fetal calf serum (Invitrogen, Merelbeke, Belgium), and 1% gentamycin (Sigma-Aldrich, Zwijndrecht, The Netherlands). Before starting the experiment, the cell lines were treated with plasmocin 25 μg/ml (Invivogen, Toulose, France) and tested with a mycoalert mycoplasma detection kit (Lonza, Rockland Me., USA). Cells were transiently transfected with Fugene6 (Roche, Indianapolis Ind., USA) with plasmid DNA, pcDNA3.1/hygro (Invitrogen) with frizzled-1/2/4 or Wnts 3a-5a or with pcDNA3.0 (Invitrogen) containing the β-catenin or frizzled-5 sequence. After transfection, the cells were cultured for 24 hours in conditioned medium, collected from the cultured L-cells, L-cells with Wnt3a or 5a (Invitrogen). At the same moment the antagonist was added.

In a further data set the target is T2, mouse Fzd-2 (Mus musculus, UniProt Q9JIP6).
T2 construct: expressed in transfected cells
The data set can be described thus: Antagonism of Wnt3a activation of mouse Fzd-2 (data not shown). Format: cell-based. An excerpt:
(§2) In FIG. 3, Panel E, the efficacy of UM206 to block the Wnt3a-induced activation of luciferase activity in HEK293 superTOPflash cells transfected with different Fzds is shown.

A further data set addresses T3, human Fzd-1 (Homo sapiens, UniProt Q9UP38).
T3 construct: expressed in transfected cells
Description: Antagonism of Wnt3a activation of human Fzd-1 (data not shown). Format: cell-based.
Source text: as §2

Data set [1] deals with canonical Wnt/Fzd-1/2 signaling. The data set can be described thus: TOPflash experiments in CHO and COS-7 cells overexpressing rFzd-1 or -2. Format: cell-based. An excerpt:
(§3) Three areas of high homology that contained two cysteines are underlined (UM207), (UM208) and (UM206). In FIGS. 9B through 9D, the inhibitory effect of these three peptides on Wnt3a-induced luciferase activity in HEK293-superTOPflash is shown. […] Again, the peptides by themselves had no effect on the luciferase activity.
For the luciferase experiments not in HEK cells, the cells were additionally transfected with a TOPflash construct, eight TCF/LEF binding sites cloned into the pTA-Luc vector. Luciferase activity was measured using luciferase assay system (Promega, Madison Wis., USA).

The subject of data set [2] is Wnt/Fzd signal transduction cascade. The data set can be described thus: Luciferase activity in HEK293-superTOPflash cells (Wnt/Fzd signal transduction cascade). The conditions noted are these: without Wnt3a. Format: cell-based, human.
Source text: as §1, §3

Another data set can be described thus: Pharmacokinetics in rats. Format: in vivo.
The subject of another data set is small intestine. Description: qPCR of Wnt target genes in small intestine after long-term UM206 administration. Format: in vivo, mice. Also noted: key to Rel. exp. Col I: expression normalized to cyclophilin housekeeping gene; key to Rel. exp. Inos / Rel. exp. CD 44 / Rel. exp. Axin 2 / Rel. exp. Itm 2A / Rel. exp. Mmp 2 / Rel. exp. Ascl 2 / Rel. exp. Dvl 2: relative expression, cyclophilin as housekeeping gene. An excerpt: This was confirmed by histological analysis of the infarct area.
RNA was isolated using the Trizol method (Invitrogen). For the RT-PCR, the RNA was transcribed to cDNA with iscript™ cDNA synthesis kit (Bio-Rad, Hercules Calif., USA), Syber green (Eurogentec, Ghent, Belgium) was used for the detection of cDNA levels and cyclophilin served as the house keeping gene. In Supplementary methods panel 5, the primer sequences are shown.

A further data set deals with 129S6 mice. Description: Infarct rupture in 129S6 mice. Format: in vivo. The settings on record: infarct rupture frequency ˜60%, unpublished observations. An excerpt:
Because of the lack of pharmacological tools to intervene in Wnt/Fzd signaling in vivo, only genetic interventions have been reported so far in studies on the role of Wnt signaling in infarct healing. Barandon et al. were the first to show a beneficial effect of overexpression on infarct healing of FrzA, a bovine homologue of soluble frizzled-related protein-1 (sFRP1). They observed a decreased infarct size with elevated numbers of myofibroblasts and increased angiogenesis in the infarcted FrzA transgenic mice (Barandon et al., 2003), which could be confirmed in the present study using an Fzd-1 and -2 antagonist. […] In the mean time, the beneficial effects of sFRP overexpression on infarct healing have been confirmed by Kobayashi et al. (Kobayashi et al., 2009). Taken together, these reports support the observations of the present study and point to a beneficial effect of inhibiting Wnt/Fzd signaling on the wound-healing process after MI.

Data set [3] can be described thus: Pharmacokinetics assay in mice.
Description: UM206 was injected into the femoral artery of Swiss mice (concentration of 10^−9 M). Blood was sampled at different time points in the femoral vein. On the y-axis, the concentration of UM206 in the plasma is shown. This is determined with HPLC and the area under the peak is calculated and shown on the y-axis. All values were corrected for the baseline value.
In order to determine the pharmacokinetic properties of UM206, we injected 15 ng of the compound into the tail vein of mice and monitored the concentration in the blood at different time points.
Male Swiss mice were used (10-12 weeks of age, Charles River, Maastricht, The Netherlands).
Blood samples were collected from the animals for the pharmacokinetics and after 14 to 35 days treatment, to determine the concentration of UM206. Blood was centrifuged and the plasma was treated with 1% TFA.

T1 sequence (Q08464 29-570): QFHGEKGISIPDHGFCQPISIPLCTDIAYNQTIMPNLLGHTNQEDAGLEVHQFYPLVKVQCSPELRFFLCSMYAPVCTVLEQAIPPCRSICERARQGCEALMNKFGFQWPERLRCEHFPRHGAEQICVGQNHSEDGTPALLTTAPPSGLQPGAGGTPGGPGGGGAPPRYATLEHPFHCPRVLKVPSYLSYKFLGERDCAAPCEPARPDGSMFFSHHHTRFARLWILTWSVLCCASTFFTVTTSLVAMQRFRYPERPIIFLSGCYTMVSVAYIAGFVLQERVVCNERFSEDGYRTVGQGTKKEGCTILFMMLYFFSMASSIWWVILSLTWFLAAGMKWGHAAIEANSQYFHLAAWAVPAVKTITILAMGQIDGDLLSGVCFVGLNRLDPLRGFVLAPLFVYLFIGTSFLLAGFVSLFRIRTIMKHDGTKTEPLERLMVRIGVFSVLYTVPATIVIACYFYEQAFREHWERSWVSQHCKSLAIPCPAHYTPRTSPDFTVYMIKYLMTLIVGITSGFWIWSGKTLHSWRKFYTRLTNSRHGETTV
T2 sequence (Q9JIP6 29-570): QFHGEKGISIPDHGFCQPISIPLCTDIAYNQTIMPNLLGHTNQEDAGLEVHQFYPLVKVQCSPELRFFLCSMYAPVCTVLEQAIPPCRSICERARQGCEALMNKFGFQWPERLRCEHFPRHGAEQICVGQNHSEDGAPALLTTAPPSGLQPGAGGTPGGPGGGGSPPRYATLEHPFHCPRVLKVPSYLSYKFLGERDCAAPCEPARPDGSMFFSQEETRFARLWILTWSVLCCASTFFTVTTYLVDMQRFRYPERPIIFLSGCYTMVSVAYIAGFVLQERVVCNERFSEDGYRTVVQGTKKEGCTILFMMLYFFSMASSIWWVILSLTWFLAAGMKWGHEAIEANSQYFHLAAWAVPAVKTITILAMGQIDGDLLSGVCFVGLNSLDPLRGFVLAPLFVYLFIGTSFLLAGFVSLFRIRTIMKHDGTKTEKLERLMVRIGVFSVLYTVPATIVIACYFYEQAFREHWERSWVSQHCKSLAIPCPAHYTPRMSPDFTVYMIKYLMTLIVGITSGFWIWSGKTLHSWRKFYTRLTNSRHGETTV
T3 sequence (Q9UP38 70-647): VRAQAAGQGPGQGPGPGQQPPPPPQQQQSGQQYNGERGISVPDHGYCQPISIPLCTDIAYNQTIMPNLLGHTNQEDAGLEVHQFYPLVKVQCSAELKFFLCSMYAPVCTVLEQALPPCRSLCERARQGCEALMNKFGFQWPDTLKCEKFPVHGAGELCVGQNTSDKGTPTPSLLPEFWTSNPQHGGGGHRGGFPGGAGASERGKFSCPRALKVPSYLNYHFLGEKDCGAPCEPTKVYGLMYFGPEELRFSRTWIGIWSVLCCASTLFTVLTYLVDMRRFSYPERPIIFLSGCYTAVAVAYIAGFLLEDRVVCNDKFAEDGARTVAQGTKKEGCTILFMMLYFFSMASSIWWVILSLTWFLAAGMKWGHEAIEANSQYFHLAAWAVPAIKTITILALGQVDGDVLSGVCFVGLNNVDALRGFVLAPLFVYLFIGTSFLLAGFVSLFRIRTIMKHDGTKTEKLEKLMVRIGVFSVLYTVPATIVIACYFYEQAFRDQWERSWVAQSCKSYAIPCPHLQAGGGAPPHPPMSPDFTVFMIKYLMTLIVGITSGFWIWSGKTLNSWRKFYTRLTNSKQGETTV

For `CSCC[C@H](NC(=O)CNC(=O)[C@H](CCC(=O)O)NC(=O)[C@H](CO)NC(=O)[C@@H](NC(=O)[C@H](CCCCN)NC(=O)[C@H](CC(N)=O)NC(=O)[C@H](CS)NC(C)=O)[C@@H](C)O)C(=O)N[C@@H](CC(=O)O)C(=O)NCC(=O)N[C@@H](CS)C(=O)N[C@@H](CCC(=O)O)C(=O)N[C@@H](CC(C)C)C(N)=O` [UM206, Ac-Cys-Asn-Lys-Thr-Ser-Glu-Gly-Met-Asp-Gly-Cys-Glu-Leu-NH2] (Ac-CNKTSEGMDGCEL-NH2), on frizzled-2 (rFzd-2), the “Higher affinity for rFzd-2 than for rFzd-1” value is on record as about 100 fold and the “Selectivity frizzled-2 over frizzled-1” value is “slightly more selective for frizzled-2 over frizzled-1”. In addition, the “Blocking of Wnt3a-induced luciferase activity, frizzled-2” value at frizzled-2 (rFzd-2) (increasing amounts of antagonist) is “completely and concentration-dependently blocked”. Moreover, the “Blocking of Wnt3a-induced luciferase activity, rFzd-2” value at frizzled-2 (rFzd-2) (peptide 1.10^−8 M) is recorded as “blocked almost completely; also recorded: abolished the induction of luciferase activity almost completely”. Also, at frizzled-2 (rFzd-2) (without Wnt3a), the “Effect of the antagonist on its own on luciferase activity” value is “no effect”. The “Antagonizing activation of mouse Fzd-2 by Wnt3a” value on mouse Fzd-2 was “fully effective”. The “Antagonizing activation of human Fzd-1 by Wnt3a” value on human Fzd-1 is “fully effective”. Besides, the “Blocking of canonical Wnt/Fzd-1/2 signaling in two other cell lines” value in [1] is “selectively block”. The “Luciferase activity induced by the peptide by itself” value in data set [2] is reported as “none of the three peptides by itself could induce an increase in luciferase activity”. The half-life entry in the data set “Pharmacokinetics in rats” is given as “around 90 minutes”. In the data set on small intestine (UM206 for five weeks), the “influence on the expression patterns in the small intestine” value is recorded as “These data indicate that UM206 had no influence on the expression patterns in the small intestine”. In the data set on small intestine (small intestine), the “Rel. exp. Ascl 2” value was determined as 1.42, the “Rel. exp. Axin 2” value is on record as 1.05, the “Rel. exp. CD 44” value stood at 1.22 and the “Rel. exp. Col I” value turned out to be 1.32. In the data set on small intestine (small intestine), the “Rel. exp. Dvl 2” value is on record as 1.13, the “Rel. exp. Inos” value was 1.18, the “Rel. exp. Itm 2A” value is reported as 0.97 and the “Rel. exp. Mmp 2” value is reported as 1.32. For the same compound, the “number of ruptured infarcts” value in the data set with 129S6 mice is recorded as “did not reduce the number of ruptured infarcts”. The compound further had a half-life in [3] (15 ng into the tail vein of mice, HPLC, n=24) of 1.39 h. The half-life in data set [3] (male, Swiss, mouse, plasma) was about 1.5 h. The same compound showed a half-life in data set [3] (male, Swiss, mouse, plasma, intravenous, 15 ng) of 1.39 ± 0.0272 h.
